Key:
NF-kB = NF-kB luciferase reporter activity in melanoma cells; assay type: cell-based, human; conditions: A375, 4 days; PGJ2 1.5 μM, Bay 11-7082 2 μM, sulfasalazine 50 μM (FIG. 8A)
Procedure: Cells were transfected with NF-kB-luciferase reporter (NF-kB-Luc, Qiagen Germantown Md.) sensitive to overall NF-kB activation and with CMV promoter b-Galactosidase (pCMVβGal) for normalization purpose. Lipofectamine 2000 (Invitrogen, Carlsbad, Calif.) was used as transfection agent. 48 hrs post transfection, luciferase activity was tested using the luciferase assay system kit (Promega) and measured with the Clarity Luminescence Microplate Reader (Bio-Tek Instruments, Winooski, Vt.).
For gene reporter activity post gene silencing using RNA interference, cells were first transfected with SiRNAs according to experimental design using as transfecting agent Lipofectamine RNAimax as previously described. 24 hrs post transfection cells were again transfected using EZH2 promoter Renilla construct or NF-kB-luciferase reporter and pCMVβGal. 48 hrs after addition of the reporter plasmid, cells were harvested and luciferase or Renilla activity measured as above mentioned.

EZH2 [1] = test: qRT-PCR analysis of EZH2 mRNA in A375 cells; assay type: cell-based, human; conditions: for EZH2 mRNA: A375 cells treated for 3 days (FIG. 1B)
Procedure: Transfection experiments with Small interfering RNAs (siRNAs): Typically 30 000 to 50 000 cells were plated in 6-well culture plates and transfected 24 hours later with 25 nM or 50 nM siRNAs using Lipofectamine RNAimax (Invitrogen) according to manufacturer protocol. If not otherwise described cells were incubated with the si-RNA for 4 days prior harvesting for further experiments. […] As non specific control, a scramble sequence siRNA was used (cat. 16106, Ambion, Life Technologies, Grand Island, N.Y.).
(§1) Quantitative RT-PCR analysis: Total RNA was isolated from cells using RNAeasy minikit (Qiagen) according to manufacturer's procedure. Reverse transcription was performed using AMV reverse transcription system (Promega) while quantitative PCR was performed with Power Sybr green (Applied biosystem, Life Technologies, Grand Island, N.Y.) following manufacturer instructions (List of primers are available in supplementary information). PCR reaction was carried on a Step One plus Real-Time PCR system (Applied Biosystems). All analyses were done in triplicate and melting curve analysis was performed to control for product quality and specificity. Expression levels were calculated using the comparative method of relative quantification, with SB34 as normalizer. Data were analyzed for their statistical significance applying Student's t-test. Results are presented as mean±SEM relative to the control.
(§2) Transcription Factor Decoys (TFD) preparation and treatment. Double stranded TFDs were obtained by annealing at 95 C two complementary single stranded oligos (purchased from Invitrogen). TFDs were designed by copying the NF-kB2 sequences discovered on the EZH2 promoter (i.e. p52 decoy referred as and TFD4 as previously described). […] If not otherwise described cells were incubated with the TFDs for 4 days prior harvesting for qPCR evaluation of EZH2 levels or Senescence associated-β-Gal assay. As non specific control, a scramble sequence was used.

EZH2 [2] = test: Western blot of EZH2 protein in melanoma cell lines; assay type: cell-based, human; conditions: metastatic melanoma cell lines carrying or not B-RAF V600E; PGJ2 2 μM 3 days, Bay 11-7082 2 μM 4 days
Procedure: Western Blot: Twenty to thirty micrograms of total proteins were run on 12% SDS-polyacrylamide gel electrophoresis. After transfer to polyvinylidene fluoride membrane (Millipore), immunoblotting was performed according to Laemli method. Glyceraldehyde-3-phosphate dehydrogenase (GAPDH), β-Actin or ERK2 were used as loading controls. Membranes were then incubated with an enhanced chemiluminescence system (Amersham) and immunoreactive bands were visualized using the luminescent image analyzer Fujifilm LAS-4000 (GE Healthcare).

EZH2 [3] = test: EZH2 level in melanoma cells cultured from patients' metastases; assay type: cell-based, human; conditions: melanoma cells from nine patients' metastases, PGJ2 2 μM 3 days / 1.5 μM 4 days
Procedure: Cell Culture: HEK293, Human A375 (CRL-1619), SK-Mel-28 (HTB-72) and MeWo (HTB-65) melanoma cell lines were purchased from American Tissue Culture Collection (Molsheim, France). Human primary melanoma cells were extracted from metastatic melanoma specimens that were obtained from the Department of Dermatology and the Biobank of the University hospital of Nice, France. All patients provided informed written consent. Biopsy was dissected and digested for 1-2 h with collagenase A (0.33 U/ml), dispase (0.85 U/ml) and Dnase I (144 U/ml) with rapid shaking at 37° C. Large debris were removed by filtration through a 70-μm cell strainer. Viable cells were obtained by Ficoll gradient centrifugation. […]
as §1, with “PCR reaction was carried on a Step One plus Real-Time PCR system (Applied Biosystems). All analyses were done in triplicate and melting curve analysis was performed to control for product quality and specificity.” left out, “Results are presented as mean±SEM relative to the control.” left out

melanoma = conditions: cited from earlier work
A375 melanoma cells = test: Senescence associated-β-Gal assay; assay type: cell-based, human; conditions: 4 days
Procedure: Senescence associated-β-Gal assay: Cells were washed then fixed for 15 min at RT and stained using the Senescence β-Galactosidase staining kit following manufacturer instruction (Cell Signaling, Beverly, Mass.). A blue color reflects the β-Gal activity.
as §2

Molecule | NF-kB activity (NF-kB) | EZH2 mRNA (EZH2 [1]) | EZH2 at protein level (EZH2 [2]) | senescence / SA-β-Gal activity (A375 melanoma cells) | other results
Cc1ccc(S(=O)(=O)/C=C/C#N)cc1 [Bay 11-7082] | inhibition of NF-kB activity | marked decrease | decrease of EZH2 at protein level |  | 
CCCCC/C=C/C=C1/C(=O)C=C[C@@H]1C/C=C\CCCC(=O)O [PGJ2, 15-deoxy-delta12,14-Prostaglandin J2] | inhibition of NF-kB activity | marked decrease | decrease of EZH2 at protein level |  | start of effect on EZH2 mRNA (EZH2 [1]; A375, time and dose dependent (FIG. 1C)): ≤ 6 h; EZH2 protein level (EZH2 [3]): consistent decrease of EZH2
O=C(O)c1cc(/N=N/c2ccc(S(=O)(=O)Nc3ccccn3)cc2)ccc1O [sulfasalazine] | inhibition of NF-kB activity | marked decrease | decrease of EZH2 at protein level |  | 
Ipilimumab: anti-CTLA-4 antibody used for the treatment of melanoma |  |  |  |  | patients responding to treatment (melanoma; melanoma patients): 10%; overall survival (melanoma; stage 4 melanoma patients): increased the overall survival
TFD1: p52 decoy, double stranded DNA ODN: forward ATCGGGTCTCC (SEQ ID NO: 6), reverse GGAGAGCCCGAT (SEQ ID NO: 7) (DNA, backbone and methylation of C not given here) |  |  |  | induce senescence | 
TFD4: p52 decoy, double stranded DNA ODN: forward ATCGGGGCTCACC (SEQ ID NO: 8), reverse GGTGAGCCCCGAT (SEQ ID NO: 9) (DNA, backbone and methylation of C not given here) |  |  |  | induce senescence | 

Source: patent US20160208249A1, “Compositions and Methods for Inducing Senescence in Cancer Cells” (INSERM (Institut National de la Sante et de la Recherche …, priority 2013, published 2016)
